Reference: patent EP1818063A1, “MEDICINE FOR TREATMENT OF DISEASE CAUSED BY HYPERSTIMULATORY CYTOTOXICITY AND THERAPEUTIC METHOD” (Japan Science and Technology Agency, priority 2004, dated 2006)
Like-named read-outs stand apart in the source and are kept apart here.

Assays:
Assay type in all cases: cell-based, mouse
[1] = tested on: volume-sensitive Cl- channel; assay: Whole-cell patch-clamp of current activated by hyposmotic stimulation; conditions: primary cultured cerebral cortical neurons
Experimental: The cerebral cortex of fetuses removed from mice on day 16 of pregnancy was plated on cover-glass slips after digestion with papain. To prevent growth of glias and other proliferative cells, the cultures were supplemented with AraC (4 µM) 2 days after plating and a neuron-rich (>95%) culture system was prepared. A whole-cell patch-clamp technique was applied to primary cultures of cerebral cortical neurons (5-8 days after incubation). The intracellular and extracellular solutions used for the patch-clamp experiments were composed of the following. Intracellular solution (300mOsm, pH 7.4): 24 mM NMDG-C1, 100 mM NMDG-aspartate, 2 mM MgCl2, 5 mM Na2ATP, 0.3 mMNa3 GTP, 1 mM EGTA, 10 mM HEPES. […] Osmolality was adjusted by adding mannitol. Current activation was observed overtime by applying a potential of ±60 mV (500 ms duration, every 15 s) from a holding potential of -40 mV. To observe current kinetics, step pulses from -100 mV to +100 mV in 20 mV increments were applied (0.5 s duration) and current response was observed. The recordings were plotted in a current-voltage curve.

[2] = tested on: EGFP-transfected primary cultured cerebral cortical neurons; assay: Recovery from varicosities after removal of excitotoxic (NMDA) stimulation; conditions: 60 minutes after 20-minute 30 µM NMDA stimulation; concentration not given
Experimental: Primary cultured cerebral cortical neurons were transfected on day 3 of culture with a plasmid containing green fluorescent protein EGFP gene, using a […] phosphate method. […] Cells on day 2-6 of transfection were used for the experiment.
The cells were subjected to an excitotoxic stimulant by 20-minute exposure to low-magnesium HEPES buffer (composition: 142 mM NaCl, 2.5 mM KCl, 0.5 mM EGTA, 0.5 mM MgCl2, 0.33 mM NaH2PO4, 10 mM HEPES, 5.5 mM glucose, 0.03 mM glycine) containing NMDA (30 µM). After stimulation, the cells were washed three times with normal HEPES buffer (composition: 140 mM NaCl, 2.5 mM KCl, 2 mM CaCl2, 2 mM MgCl2, 10 mM HEPES, 5.5 mM glucose, 35 mM mannitol). The cells were then incubated at 37°C in the same buffer, and fixed with 4% paraformaldehyde at different time points (0, 15, 30, 60 min).
As in Example 4, EGFP-transfected primary cultured cerebral cortical neurons were used. According to the procedure of Example 4, the cells were subjected to excitotoxic stimulation, and incubated with normal HEPES buffer supplemented with various kinds of medicines. After 60 minutes, the cells were fixed with 4% paraformaldehyde, and the number of varicosity-bearing cells was counted with a fluorescent microscope as a percentage of the total number of counted neurons.

[3] = tested on: primary cultured cerebral cortical neurons; assay: Varicosity formation (neuronal swelling) during excitotoxic NMDA stimulation
Experimental: (§1) In order to access effects of volume-sensitive Cl- channel blocker on neuronal swelling or necrosis caused by hyperexcitation, primary cultures of cerebral cortical neurons isolated from fetuses removed from mice on day 16 of pregnancy were used. The primary cultured cerebral cortical neurons were cultured in a 5% CO2 incubator at 37°C, using Dulbecco's medium supplemented with 10% fetal bovine serum, streptomycin, and penicillin. To visualize dendrites, the cultured cerebral cortical neurons were transfected with EGFP gene on day 3 of culture, using a […] phosphate method. As an excitotoxic stimulant, Earle's Balanced Salt Solution (EBSS; commercially available as GIBCO#14155-063) was used that contained 30 µM N-methyl-D-aspartate (NMDA) and 30 µM glycine, supplemented with 2 mM CaCl2 and 0.5 mM MgCl2. To confirm activation of volume-sensitive Cl- channel, an experiment was conducted using a perforated-vesicle patch-clamp technique. After forming a gigaohm seal on the membrane of the varicosities exposed to excitotoxic stimulation, recording electrodes were raised to record currents from a single varicosity patch membrane. The intracellular and extracellular solutions used for the patch-clamp experiment were composed of the following. Extracellular solution: 124 mM N-methyl-D-glucamine (NMDG), 124 mM HCl, 20 mM TEA-Cl, 4 mM MgCl2, 0.33 mM NaH2PO4, 0.5 mM EGTA, 10 mM 2-[4-(2-hydroxyethyl)-1-piperazinyl] ethanesulfonic acid (HEPES), 2 mM 4-aminopyridine (4-AP), 5.5 mM glucose, 270mOsm, pH7.4. Intracellular solution: 145 mM KCl, 10 mM HEPES, 1 mM EGTA, 1 mM MgCl2, 0.3 mg/ml nystatin, 300mOsm, pH 7.4.
Neuronal swelling was assessed as a proportion of varicosity-forming cells in the total number of neurons. After 20-minute excitotoxic stimulation, the cells were fixed with 4% paraformaldehyde, and the number of cells in each cell group was counted with a fluorescent microscope.
Figure 7A is micrographs showing excitotoxic swelling of neurons induced by glutamate receptor agonist (30 µM NMDA). Primary cultured cerebral cortical neurons were visualized through EGFP expression. […] Figure 7B represents inhibitory action of Cl- channel blocker on varicosity formation. In the Figure, asterisk indicates a level of significant difference (p<0.05) from data on NMDA (before application of blocker).

[4] = tested on: primary cultured cerebral cortical neurons; assay: Necrotic neuronal cell death by LDH release after NMDA exposure
Experimental: as §1
(§2) Necrotic neuronal cell death was assessed by PI staining in which the nuclei are stained with a propidium iodide (PI) dye that enters the cells through damaged portions of the plasma membrane, or by measuring the level of extracellular lactate dehydrogenase (LDH) released from dead cells.

[5] = tested on: primary cultured cerebral cortical neurons; assay: Necrotic neuronal cell death by PI staining after NMDA exposure
Experimental: as §1, §2

[6] = tested on: cerebral cortical neurons; assay: Volume regulation (recovery from swelling) under hypotonic conditions, soma cross-sectional area by two-photon microscopy; conditions: 80 µM; hyposmotic solution 200mOsm
Experimental: Primary cultured neurons on day 5-8 of culture were loaded with calcein-AM to visualize the cells, and X-Y cross sectional images were captured over time with a two-photon laser microscope. Cell size was assessed based on changes in cross sectional area of the soma. An area ratio at each time point was calculated and plotted on a graph, with the area at the start of experiment given as 1 (Figure 2B). The solution used for the experiment had the following composition: 90 mM NaCl, 2.5 mM KCl, 5 mM HEPES, 2 mM MgCl2, 2 mM CaCl2, and 10 mM glucose.

[7] = tested on: volume-sensitive Cl- channel; assay: Perforated-vesicle patch-clamp of single-channel currents on the varicosity membrane
Experimental: In order to access effects of volume-sensitive Cl- channel blocker on neuronal swelling or necrosis caused by hyperexcitation, primary cultures of cerebral cortical neurons isolated from fetuses removed from mice on day 16 of pregnancy were used. The primary cultured cerebral cortical neurons were cultured in a 5% CO2 incubator at 37°C, using Dulbecco's medium supplemented with 10% fetal bovine serum, streptomycin, and penicillin. To visualize dendrites, the cultured cerebral cortical neurons were transfected with EGFP gene on day 3 of culture, using a […] phosphate method. As an excitotoxic stimulant, Earle's Balanced Salt Solution (EBSS; commercially available as GIBCO#14155-063) was used that contained 30 µM N-methyl-D-aspartate (NMDA) and 30 µM glycine, supplemented with 2 mM CaCl2 and 0.5 mM MgCl2. To confirm activation of volume-sensitive Cl- channel, an experiment was conducted using a perforated-vesicle patch-clamp technique. […]
After forming a gigaohm seal on the membrane of varicosities formed by excitotoxic stimulation (Figure 8A), the recording electrodes were lifted up to excise a single varicosity, with which recordings of volume-sensitive Cl- currents were made (Figure 8B). […] These properties of the recorded currents coincided with those of the volume-sensitive Cl- channel.

[8] = 40 µM co-applied with NMDA for 3 hours
[9] = 100 µM during 20-minute 30 µM NMDA stimulation
[10] = 100 µM co-applied with NMDA for 3 hours

O=S(=O)(O)c1cc(N=C=S)ccc1C=Cc1ccc(N=C=S)cc1S(=O)(=O)O [DIDS]
inhibition of current activated by hyposmotic stimulation ([1]; 400 µM): inhibited

O=C(O)c1cc([N+](=O)[O-])ccc1NCCCc1ccccc1 [NPPB]
inhibition of current activated by hyposmotic stimulation ([1]; 80 µM): inhibited | Recovery from varicosities [2]: significantly inhibited | number of varicosity-forming neurons ([3]; 40 µM during 20-minute 30 µM NMDA stimulation): decreased significantly | level of LDH release [4, 8]: significantly inhibited | number of PI positive cells [5, 8]: decreased significantly | volume regulation [6]: inhibited | single-channel events observed on the varicosity ([7]; 80 µM, 3 minutes after application): blocked | blocking effect after removal ([7]; 3 minutes after removal of 80 µM): reversible

CN1CCc2cc3c(cc2[C@H]1[C@@H]1OC(=O)c2c1ccc1c2OCO1)OCO3 [bicuculline]
number of varicosity-forming neurons [3]: no significant inhibiting effects | level of LDH release [4]: No inhibiting effects | number of PI positive cells [5]: no significant inhibiting effects

O=C(CCc1ccc(O)cc1)c1c(O)cc(O)cc1O [phloretin]
inhibition of current activated by hyposmotic stimulation ([1]; 100 µM): inhibited | Recovery from varicosities [2]: significantly inhibited | number of varicosity-forming neurons [3, 9]: decreased significantly | level of LDH release [4, 10]: significantly inhibited | number of PI positive cells [5, 10]: decreased significantly

picrotoxin
number of varicosity-forming neurons [3, 9]: no significant inhibiting effects | level of LDH release [4, 10]: No inhibiting effects | number of PI positive cells [5, 10]: no significant inhibiting effects
